Reference: US20080299538A1, “Pathogen Inactivation of Whole Blood” (CARIDIANBCT BIOTECHNOLOGIES, LLC, priority 2003, published 2008)
Read-outs that look alike come from different tables or passages of the source.

How the values were obtained:
white blood cells (WBCs) [1] = assay: WBC functionality, all tested stimuli (summary statements); type: cell-based
white blood cells (WBCs) [2] = conditions: Allostimulation: treated stimulators
Hepatitis A (HAV) = assay: Virus inactivation in whole blood; type: cell-based; conditions: as a function of illumination energy
[3] = test system: infectious bovine rhinotracheitis virus (IBR); assay: Virus inactivation in whole blood; type: cell-based; conditions: as a function of illumination energy
S. epidermidis = assay: Low bacteria titer study in whole blood; type: cell-based; parameters: key to Bacteria detected (+) or not detected (−) after treatment: +: some of the replicates of the cultures in the panel grew in under 5 days; −: none of the replicates of the cultures in the panel grew in under 5 days; conditions: for Bacteria detected (+) or not detected (−) after treatment: 110 J/mLRBC (n = 3)
Description: To test whether pathogen inactivation of whole blood was effective in inactivating clinically relevant levels of bacteria which may be present in the whole blood, low titer bacteria studies were done. After pathogen inactivation of whole blood, the whole blood was separated into a red blood cell (RBC) component and platelet rich plasma (PRP) component. A + symbol means that some of the replicates of the cultures in the panel grew in under 5 days. A − symbol means that none of the replicates of the cultures in the panel grew in under 5 days.

canine parvovirus (CPV) = assay: Virus inactivation in whole blood; type: cell-based; conditions: as a function of illumination energy
white blood cells (WBCs) [4] = assay: Cytokine production in response to anti-CD3/CD28 (Cytometric Bead Assay)
white blood cells (WBCs) [5] = assay: WBC proliferation in response to PHA (thymidine incorporation)
white blood cells (WBCs) [6] = conditions: for % inhibition of proliferation: Allorecognition: treated responders
[7] = anti-CD3/28, 33 J/mlRBC and above, compared to untreated cells
[8] = anti-CD3/28, TH1/TH2 cytokines, 22 J/mlRBC
[9] = anti-CD3/28, TH1/TH2 cytokines, 33 J/mlRBC
[10] = anti-CD3/28, TH1/TH2 cytokines, 44 J/mlRBC
[11] = anti-CD3/28, inflammatory cytokines, 22 J/mlRBC
[12] = anti-CD3/28, inflammatory cytokines, 33 J/mlRBC
[13] = anti-CD3/28, inflammatory cytokines, 44 J/mlRBC

## Cc1cc2nc3c(=O)[nH]c(=O)nc-3n(C[C@H](O)[C@H](O)[C@H](O)CO)c2cc1C [riboflavin, 7,8-dimethyl-10-ribityl isoalloxazine]
White blood cells (WBCs) [1]; riboflavin and light
  functional inactivation of white blood cells in whole blood: functionally inactivates the white blood cells
White blood cells (WBCs) [1]; riboflavin+UV light at all energies tested
  proliferation in response to PHA, anti-CD3/CD28 and allogeneic stimulator cells: inhibited proliferation
White blood cells (WBCs) [2]; 22 J/mlRBC
  % inhibition of proliferation: 93 ± 3%
White blood cells (WBCs) [2]; 33 J/mlRBC
  % inhibition of proliferation: 96 ± 2%
White blood cells (WBCs) [2]; 44 J/mlRBC
  % inhibition of proliferation: 95 ± 2%
Hepatitis A (HAV)
  log reduction of virus: increases linearly with respect to energy
[3]
  log reduction of virus: increases linearly with respect to energy
S. epidermidis; PRP
  Bacteria detected (+) or not detected (−) after treatment: −
S. epidermidis; RBC
  Bacteria detected (+) or not detected (−) after treatment: +
S. epidermidis; 110 J/mLRBC, RBC
  bacterial growth in red blood cells: grew
Canine parvovirus (CPV)
  log reduction of virus: increases linearly with respect to energy
White blood cells (WBCs) [4]
  inflammatory cytokine production in response to anti-CD3/28 antibodies: significantly reduced
White blood cells (WBCs) [4]; all energies tested
  TH1/TH2 cytokine production induced by anti-CD3/28 stimulation: significantly reduced
White blood cells (WBCs) [4]; all energies tested, with the exception of IL-4 and IL-8 at 22 J/mlRBC
  cytokine production in response to anti-CD3/anti-CD28 antibodies blocked: > 90%
White blood cells (WBCs) [4]; [7]
  inhibition of IFN-γ production: > 90%
  inhibition of IL-2 production: > 90%
  inhibition of TNF-α production: > 90%
White blood cells (WBCs) [4]; [8]
  % inhibition of IFN-γ production: 99 ± 1%
  % inhibition of IL-2 production: 91 ± 7%
  % inhibition of IL-4 production: 84%
  % inhibition of IL-5 production: 94 ± 3%
  % inhibition of IL-10 production: 99 ± 1%
  % inhibition of TNFα production: 92 ± 15%
White blood cells (WBCs) [4]; [9]
  % inhibition of IFN-γ production: 100 ± 0%
  % inhibition of IL-2 production: 99 ± 1%
  % inhibition of IL-4 production: 95 ± 3%
  % inhibition of IL-5 production: 99 ± 1%
  % inhibition of IL-10 production: 100 ± 0%
  % inhibition of TNFα production: 99 ± 1%
White blood cells (WBCs) [4]; [10]
  % inhibition of IFN-γ production: 100 ± 0%
  % inhibition of IL-2 production: 100 ± 0%
  % inhibition of IL-4 production: 97 ± 2%
  % inhibition of IL-5 production: 99 ± 1%
  % inhibition of IL-10 production: 100 ± 0%
  % inhibition of TNFα production: 100 ± 0%
White blood cells (WBCs) [4]; [11]
  % inhibition of IL-1β production: 98 ± 2%
  % inhibition of IL-6 production: 99 ± 2%
  % inhibition of IL-8 production: 89%
  % inhibition of IL-10 production: 99 ± 1%
  % inhibition of IL-12 p70 production: 98 ± 4%
  % inhibition of TNFα production: 90 ± 12%
White blood cells (WBCs) [4]; [12]
  % inhibition of IL-1β production: 100 ± 0%
  % inhibition of IL-6 production: 100 ± 0%
  % inhibition of IL-8 production: 98 ± 2%
  % inhibition of IL-10 production: 100 ± 0%
  % inhibition of IL-12 p70 production: 99 ± 2%
  % inhibition of TNFα production: 100 ± 0%
White blood cells (WBCs) [4]; [13]
  % inhibition of IL-1β production: 100 ± 0%
  % inhibition of IL-6 production: 100 ± 0%
  % inhibition of IL-8 production: 100 ± 0%
  % inhibition of IL-10 production: 100 ± 0%
  % inhibition of IL-12 p70 production: 97 ± 4%
  % inhibition of TNFα production: 100 ± 0%
White blood cells (WBCs) [5]; 22 J/mlRBC
  % inhibition of proliferation: 98 ± 1%
White blood cells (WBCs) [5]; 33 J/mlRBC
  % inhibition of proliferation: 99 ± 1%
White blood cells (WBCs) [5]; 33 J/mlRBC and above, 3 days of incubation
  induced proliferation of treated WBCs: no detectable induced proliferation
White blood cells (WBCs) [5]; 44 J/mlRBC
  % inhibition of proliferation: 99 ± 0%
White blood cells (WBCs) [6]; 22 J/mlRBC
  % inhibition of proliferation: 95 ± 3%
White blood cells (WBCs) [6]; 33 J/mlRBC
  % inhibition of proliferation: 95 ± 2%
White blood cells (WBCs) [6]; 44 J/mlRBC
  % inhibition of proliferation: 96 ± 2%
White blood cells (WBCs) [6]; treated WBCs as responder cells in MLC
  proliferation of treated WBCs in response to allogeneic stimulator cells: not able to proliferate
